Key:
[1] = target: T1, human Focal Adhesion Kinase (FAK) (Homo sapiens, UniProt Q05397); test: FAK3 Kinase Inhibition Assay (in vitro enzyme assay); assay type: biochemical; conditions: read-out: FAK inhibitory activity IC50
T1 construct: FAK (full length human cDNA described by Andre et al); made in house; host or cells: Sf21 insect cells, baculovirus (pFastbac 1); cleared cell lysate used as enzyme stock
Description: FAK3 Kinase Inhibition Assay
This assay determines the ability of a test compound to inhibit tyrosine kinase activity of human Focal Adhesion Kinase (FAK).
Active FAK protein has been previously expressed in a baculovirus system using a similar N-terminal 6-histidine tag (Protein Expression And Purification, 1996, 7: 12–18). The human FAK cDNA was cloned into the baculovirus transplacement vector, pFastbac 1 (Life Technologies), and the recombinant construct was co-transfected into insect cells (for example Spodoptera frugiperda 21(Sf21)) with viral DNA to prepare recombinant baculovirus (details of the methods for the assembly of recombinant DNA molecules and the preparation and use of recominant baculovirus can be found in standard texts for example Sambrook et al, 1989, Molecular cloning-A Laboratory Manual, 2nd edition, Cold Spring Harbour Laboratory Press and O'Reilly et al, 1992, Baculovirus Expression Vectors-A Laboratory Manual, W. H. Freeman and Co, New York. Details specific to the use of the pFastbac (‘Bac to Bac’) system are provided in Anderson et al., 1995, FOCUS (Life Technologies Bulletin Magazine), 17, p53.)
For expression of biologically active human FAK protein, Sf21 cells were infected with plaque-pure FAK recombinant virus at a multiplicity of infection of 3 and harvested 48 hours later. […]

[2] = target: T2, CDK4/Cyclin D1 (Homo sapiens, UniProt P11802); test: CDK4 Inhibition Assay (Scintillation Proximity Assay, GST-Retinoblastoma substrate); assay type: biochemical; conditions: in vitro kinase assay, 0.2 μM ATP; read-out: CDK4 inhibitory activity IC50
T2 construct: made in house; host or cells: Sf21 insect cells, baculovirus co-infection (pVL1393)
Experimental: The compounds were tested in an in vitro kinase assay in 96 well format using Scintillation Proximity Assay (SPA-obtained from Amersham) for measuring incorporation of [γ-33-P]-Adenosine Triphosphate into a test substrate (GST-Retinoblastoma). In each well was placed the compound to be tested (diluted in DMSO and water to correct concentrations) and in control wells either p16 as an inhibitor control or DMSO as a positive control.
Approximately 0.5 μl of CDK4/Cyclin D1 partially-purified enzyme (amount dependent on enzyme activity) diluted in 25 μl incubation buffer was added to each well then 20 μl of GST-Rb/ATP/ATP33 mixture (containing 0.5 μg GST-Rb and 0.2 μM ATP and 0.14 μCi [γ-33-P]-Adenosine Triphosphate), and the resulting mixture shaken gently, then incubated at room temperature for 60 minutes.
To each well was then added 150 μL stop solution containing (0.8 mg/well of Protein A-PVT SPA bead (Amersham)), 20 pM/well of Anti-Glutathione Transferase, Rabbit IgG (obtained from Molecular Probes), 61 mM EDTA and 50 mM HEPES pH 7.5 containing 0.05% sodium azide.
The plates were sealed with Topseal-S plate sealers, left for two hours then spun at 2500 rpm, 1124 xg., for 5 minutes. The plates were read on a Topcount for 30 seconds per well. […]

T1 sequence (Q05397 whole entry): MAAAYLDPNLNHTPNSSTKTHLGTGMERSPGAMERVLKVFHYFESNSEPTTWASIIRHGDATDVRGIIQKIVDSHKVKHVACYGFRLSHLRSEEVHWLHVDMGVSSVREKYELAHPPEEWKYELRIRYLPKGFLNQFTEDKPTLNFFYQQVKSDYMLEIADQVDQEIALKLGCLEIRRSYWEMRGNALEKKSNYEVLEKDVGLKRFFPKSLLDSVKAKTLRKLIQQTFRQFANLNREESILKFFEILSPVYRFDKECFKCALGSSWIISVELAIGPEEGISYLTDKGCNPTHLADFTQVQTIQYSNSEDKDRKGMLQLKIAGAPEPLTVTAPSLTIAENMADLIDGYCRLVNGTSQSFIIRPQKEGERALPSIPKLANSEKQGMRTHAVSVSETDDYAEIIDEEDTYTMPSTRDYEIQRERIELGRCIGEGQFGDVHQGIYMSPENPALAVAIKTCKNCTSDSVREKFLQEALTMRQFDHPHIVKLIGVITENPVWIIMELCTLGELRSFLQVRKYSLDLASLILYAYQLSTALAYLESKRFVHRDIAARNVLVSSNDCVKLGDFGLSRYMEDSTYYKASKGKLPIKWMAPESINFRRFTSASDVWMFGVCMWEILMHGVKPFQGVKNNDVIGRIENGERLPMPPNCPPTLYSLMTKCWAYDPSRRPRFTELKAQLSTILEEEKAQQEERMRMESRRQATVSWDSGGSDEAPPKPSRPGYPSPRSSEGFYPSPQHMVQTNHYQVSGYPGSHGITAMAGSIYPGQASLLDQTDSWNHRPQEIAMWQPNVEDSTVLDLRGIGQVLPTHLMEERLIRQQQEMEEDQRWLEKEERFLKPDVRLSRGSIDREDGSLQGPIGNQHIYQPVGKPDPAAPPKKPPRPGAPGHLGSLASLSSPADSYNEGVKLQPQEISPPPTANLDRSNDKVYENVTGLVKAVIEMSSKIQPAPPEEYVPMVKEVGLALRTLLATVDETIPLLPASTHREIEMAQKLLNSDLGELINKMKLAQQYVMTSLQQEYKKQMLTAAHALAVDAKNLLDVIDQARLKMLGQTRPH
T2 sequence (P11802 whole entry): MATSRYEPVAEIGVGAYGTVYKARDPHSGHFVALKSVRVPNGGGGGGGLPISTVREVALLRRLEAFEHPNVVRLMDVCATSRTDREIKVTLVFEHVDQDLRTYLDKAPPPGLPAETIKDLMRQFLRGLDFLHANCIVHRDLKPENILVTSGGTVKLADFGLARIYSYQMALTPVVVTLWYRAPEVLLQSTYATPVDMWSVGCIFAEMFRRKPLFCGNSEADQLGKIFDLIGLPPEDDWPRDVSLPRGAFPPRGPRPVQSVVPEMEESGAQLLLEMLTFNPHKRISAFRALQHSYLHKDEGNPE
T2 sequence (P24385 whole entry partner): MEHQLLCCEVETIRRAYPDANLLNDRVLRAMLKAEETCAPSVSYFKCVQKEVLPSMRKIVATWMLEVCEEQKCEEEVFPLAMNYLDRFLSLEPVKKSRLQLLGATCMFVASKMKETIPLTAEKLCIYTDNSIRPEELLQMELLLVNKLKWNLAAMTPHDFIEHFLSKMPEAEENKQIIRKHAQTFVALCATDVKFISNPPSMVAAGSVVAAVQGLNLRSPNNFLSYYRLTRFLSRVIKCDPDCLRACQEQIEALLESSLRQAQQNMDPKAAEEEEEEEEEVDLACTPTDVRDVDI

IC50 [1] | IC50 [2] | SMILES
218 nM | – | CCN(CC)CCOc1ccc(Nc2ncc(Br)c(Nc3ccccc3)n2)cc1 [Example 25]
– | 679 nM | OCCOCc1ccc(Nc2ncc(Br)c(Nc3ccccc3)n2)cc1 [Example 31, 4-Anilino-5-bromo-2-[4-(2-hydroxyethoxy)methylanilino]pyrimidine]
